Laboratory results taken from patent US11957687B2 (REGENERON PHARMACEUTICALS, INC., priority 2019, dated 2024).
Where two headings read alike, the source gives them in different places.

Columns and labels:
HSD17B13 = HSD17B13 (Homo sapiens (Human), UniProt Q7Z5P4); assay: HSD17B13 enzymatic inhibition assay (150 nM or 50 nM HSD17B13); type: biochemical
[1] = Microsome stability assay, human liver microsomes; type: in vitro ADME; settings: 1 μM compound, 0.5 mg/mL microsomal protein; for microsomal CLint at 1 h, 1 µM / half-life at 1 h, 1 µM / microsomal CLint at 1 μM / half-life at 1 μM: human, human liver microsomes, pooled, NADPH, 37° C.; for microsomal CLint at 1 h, 1 µM / microsomal CLint at 1 μM: read-out: Microsome Stability Human liver microsomes Cl; for half-life at 1 h, 1 µM / half-life at 1 μM: read-out: Microsome Stability Human liver microsomes T½
Experimental: (§1) Compounds of the disclosure were screened in microsome stability assays. For the screen, test compounds were incubated at 37° C. with either human liver microsomes (Corning; #452117) or mouse liver microsomes (XenoTech; #M1000), pooled from multiple donors, at 1 μM in the presence of a NADPH regenerating system at 0.5 mg/mL microsomal protein. Positive controls included in the assay were testosterone (3A4 substrate), propafenone (2D6) and diclofenac (2C9). Samples were removed at different time points (0, 5, 10, 20, 30 and 60 minutes) and immediately mixed with cold acetonitrile containing internal standard (IS, 200 ng/mL tolbutamide and 200 ng/mL labetalol). Test compounds incubated with microsomes for 60 minutes without the NADPH regenerating system was also included. A single point for each test condition (n=1) was obtained, and samples were analyzed by LC/MS/MS. Disappearance of the test compound was assessed based on peak area ratios of analyte/IS (no standard curve).

[2] = Microsome stability assay, mouse liver microsomes; type: in vitro ADME; settings: 1 μM compound, 0.5 mg/mL microsomal protein
Experimental: as §1

[3] = 50 nM HSD17B13, read-out: Inhibition of 50 nM of HSD17B13 IC50
[4] = 150 nM HSD17B13, read-out: Inhibition of 150 nM of HSD17B13 IC50

HSD17B13, sequence (Q7Z5P4 other isoform, or with tags, fused parts or gaps): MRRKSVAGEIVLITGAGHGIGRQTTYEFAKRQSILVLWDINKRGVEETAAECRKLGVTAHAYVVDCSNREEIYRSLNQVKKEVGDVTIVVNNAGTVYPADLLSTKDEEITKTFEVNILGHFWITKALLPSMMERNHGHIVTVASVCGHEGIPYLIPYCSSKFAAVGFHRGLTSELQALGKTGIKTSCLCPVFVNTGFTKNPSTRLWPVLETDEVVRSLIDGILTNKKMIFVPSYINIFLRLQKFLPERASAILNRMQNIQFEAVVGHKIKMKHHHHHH

Cc1ccc(C(NC(=O)c2ccc(C(F)(F)F)[nH]c2=O)c2ccccc2)cc1C (stereo not drawn) [Compound 2A, N-((3,4-dimethylphenyl)(phenyl)methyl)-2-oxo-6-(trifluoromethyl)-1,2-dihydropyridine-3-carboxamide]
IC50 (HSD17B13; [3]): 280 nM
IC50 (HSD17B13; [4]): 1570 nM
Microsome Stability Human liver microsomes % Remaining @60 min [1]: 0.10%
microsomal CLint at 1 h, 1 µM [1]: 515 µL/min/mg
half-life at 1 h, 1 µM [1]: 2.7 min

O=C(NC(c1ccccc1)c1ccc2c(c1)OCO2)c1ccc(C(F)(F)F)[nH]c1=O (stereo not drawn) [Compound 3, N-(benzo[d][1,3]dioxol-5-yl(phenyl)methyl)-2-oxo-6-(trifluoromethyl)-1,2-dihydropyridine-3-carboxamide]
IC50 (HSD17B13; [4]): 1310 nM
Microsome Stability Human liver microsomes % Remaining @60 min [1]: 1.00%
microsomal CLint at 1 h, 1 µM [1]: 217 µL/min/mg
half-life at 1 h, 1 µM [1]: 6.39 min

O=C(NC(c1ccccc1)c1cccc(C(F)(F)F)c1)c1ccc(C(F)(F)F)[nH]c1=O (stereo not drawn) [Compound 7, 2-oxo-N-(phenyl(3-(trifluoromethyl)phenyl)methyl)-6-(trifluoromethyl)-1,2-dihydropyridine-3-carboxamide]
IC50 (HSD17B13; [3]): 3090 nM
Microsome Stability Human liver microsomes % Remaining @60 min [1]: 101.00%
microsomal CLint at 1 μM [1]: < 9.6 µL/min/mg
half-life at 1 μM [1]: > 145 min

CS(=O)(=O)Nc1ccc(C(NC(=O)c2ccc(C(F)(F)F)[nH]c2=O)c2ccccc2)cc1 (stereo not drawn) [Compound 7A, N-((4-(methylsulfonamido)phenyl)(phenyl)methyl)-2-oxo-6-(trifluoromethyl)-1,2-dihydropyridine-3-carboxamide]
IC50 (HSD17B13; [3]): 1100 nM
Microsome Stability Human liver microsomes % Remaining @60 min [1]: 93.90%
microsomal CLint at 1 μM [1]: < 9.6 µL/min/mg
half-life at 1 μM [1]: > 145 min

CC(C)Cc1ccc(C(NC(=O)c2ccc(C(F)(F)F)[nH]c2=O)c2ccccc2)cc1 (stereo not drawn) [Compound 13, N-((4-isobutylphenyl)(phenyl)methyl)-2-oxo-6-(trifluoromethyl)-1,2-dihydropyridine-3-carboxamide]
IC50 (HSD17B13; [3]): 940 nM
Microsome Stability Human liver microsomes % Remaining @60 min [1]: 1.44%
microsomal CLint at 1 h, 1 µM [1]: 138 µL/min/mg
half-life at 1 h, 1 µM [1]: 10.1 min

O=C(NC(c1ccccc1)c1ccc(Oc2ccccc2)cc1)c1ccc(C(F)(F)F)[nH]c1=O (stereo not drawn) [Compound 16, N-((4-phenoxyphenyl)(phenyl)methyl)-2-oxo-6-(trifluoromethyl)-1,2-dihydropyridine-3-carboxamide]
IC50 (HSD17B13; [3]): 970 nM
Microsome Stability Human liver microsomes % Remaining @60 min [1]: 23.30%
microsomal CLint at 1 μM [1]: 45.2 µL/min/mg
half-life at 1 μM [1]: 30.7 min

O=C(NC(c1ccccc1)c1cccc(O)c1)c1ccc(C(F)(F)F)[nH]c1=O (stereo not drawn) [Compound 18, N-((3-hydroxyphenyl)(phenyl)methyl)-2-oxo-6-(trifluoromethyl)-1,2-dihydropyridine-3-carboxamide]
IC50 (HSD17B13; [3]): 2480 nM
Microsome Stability Human liver microsomes % Remaining @60 min [1]: 36.60%
microsomal CLint at 1 h, 1 µM [1]: 33 µL/min/mg
half-life at 1 h, 1 µM [1]: 42 min

O=C(NC(c1ccccc1)c1ccccc1O)c1ccc(C(F)(F)F)[nH]c1=O (stereo not drawn) [Compound 35, N-((2-hydroxyphenyl)(phenyl)methyl)-2-oxo-6-(trifluoromethyl)-1,2-dihydropyridine-3-carboxamide]
IC50 (HSD17B13; [4]): 2780 nM
Microsome Stability Human liver microsomes % Remaining @60 min [1]: 14.90%
microsomal CLint at 1 h, 1 µM [1]: 63.4 µL/min/mg
half-life at 1 h, 1 µM [1]: 21.9 min

CCCc1ccc(C(NC(=O)c2ccc(C(F)(F)F)[nH]c2=O)c2ccccc2)cc1 (stereo not drawn) [Compound 36, 2-oxo-N-(phenyl(4-propylphenyl)methyl)-6-(trifluoromethyl)-1,2-dihydropyridine-3-carboxamide]
IC50 (HSD17B13; [3]): 680 nM
Microsome Stability Human liver microsomes % Remaining @60 min [1]: 2.00%
microsomal CLint at 1 h, 1 µM [1]: 126 µL/min/mg
half-life at 1 h, 1 µM [1]: 11 min

CC(C)c1ccc(C(NC(=O)c2ccc(C(F)(F)F)[nH]c2=O)c2ccccc2)cc1 (stereo not drawn) [Compound 37, N-((4-isopropylphenyl)(phenyl)methyl)-2-oxo-6-(trifluoromethyl)-1,2-dihydropyridine-3-carboxamide]
IC50 (HSD17B13; [3]): 780 nM
Microsome Stability Human liver microsomes % Remaining @60 min [1]: 5.70%
microsomal CLint at 1 h, 1 µM [1]: 92.4 µL/min/mg
half-life at 1 h, 1 µM [1]: 15 min

Cc1ccc(C(=O)NC(c2ccccc2)c2ccccc2O)c(=O)[nH]1 (stereo not drawn) [Compound 65, N-((2-hydroxyphenyl)(phenyl)methyl)-6-methyl-2-oxo-1,2-dihydropyridine-3-carboxamide]
IC50 (HSD17B13; [4]): > 30000 nM
Microsome Stability Human liver microsomes % Remaining @60 min [1]: 50.10%
microsomal CLint at 1 h, 1 µM [1]: 118 µL/min/mg
half-life at 1 μM [1]: 11.8 min

COc1ccc2c(c1)CCC2NC(=O)c1ccc(C(F)(F)F)[nH]c1=O (stereo not drawn) [Compound 134, N-(5-methoxy-2,3-dihydro-1H-inden-1-yl)-2-oxo-6-(trifluoromethyl)-1,2-dihydropyridine-3-carboxamide]
IC50 (HSD17B13; [3]): 1410 nM
Microsome Stability Human liver microsomes % Remaining @60 min [1]: 0.27%
microsomal CLint at 1 h, 1 µM [1]: 410 µL/min/mg
half-life at 1 h, 1 µM [1]: 3.38 min

Cc1ccc(CNC(=O)c2ccc(C(F)(F)F)[nH]c2=O)cc1 [Compound 215, N-(4-methylbenzyl)-2-oxo-6-(trifluoromethyl)-1,2-dihydropyridine-3-carboxamide]
IC50 (HSD17B13; [3]): 2200 nM
Microsome Stability Human liver microsomes % Remaining @60 min [1]: 1.00%
microsomal CLint at 1 h, 1 µM [1]: 414 µL/min/mg
half-life at 1 h, 1 µM [1]: 3.35 min

CCCC1Cc2ccc(C)cc2C1NC(=O)c1ccc(C(F)(F)F)[nH]c1=O (stereo not drawn) [Compound 291, N-(6-methyl-2-propyl-2,3-dihydro-1H-inden-1-yl)-2-oxo-6-(trifluoromethyl)-1,2-dihydropyridine-3-carboxamide]
Microsome Stability Mouse liver microsomes % Remaining @60 min ([2]; 60 min): 52.20%
microsomal CLint at 1 h, 1 µM ([2]; mouse, mouse liver microsomes, pooled, NADPH, 37° C., read-out: Microsome Stability Mouse liver microsomes Cl): 21.3 µL/min/mg
half-life at 1 h, 1 µM ([2]; mouse, mouse liver microsomes, pooled, NADPH, 37° C., read-out: Microsome Stability Mouse liver microsomes T½): 65 min
Microsome Stability Human liver microsomes % Remaining @60 min [1]: 17.90%
microsomal CLint at 1 h, 1 µM [1]: 54.5 µL/min/mg
half-life at 1 h, 1 µM [1]: 25.5 min

O=C(NC1CCCc2c(/C=C/c3ccccc3)cccc21)c1ccc(C(F)(F)F)[nH]c1=O (stereo not drawn) [Compound 548, (E)-2-oxo-N-(5-styryl-1,2,3,4-tetrahydronaphthalen-1-yl)-6-(trifluoromethyl)-1,2-dihydropyridine-3-carboxamide]
IC50 (HSD17B13; [3]): 9280 nM

N#Cc1cccc2c1CCCC2NC(=O)c1ccc(C(F)(F)F)[nH]c1=O (stereo not drawn) [Compound 549, N-(5-cyano-1,2,3,4-tetrahydronaphthalen-1-yl)-2-oxo-6-(trifluoromethyl)-1,2-dihydropyridine-3-carboxamide]
IC50 (HSD17B13; [3]): 8370 nM

Cc1ccc(C(CC2CCCO2)NC(=O)c2ccc(C(F)(F)F)[nH]c2=O)cc1 (stereo not drawn) [Compound 550, 2-oxo-N-(2-(tetrahydrofuran-2-yl)-1-(p-tolyl)ethyl)-6-(trifluoromethyl)-1,2-dihydropyridine-3-carboxamide]
IC50 (HSD17B13; [3]): 1600 nM

Cc1ccc(C(CC2CCOCC2)NC(=O)c2ccc(C(F)(F)F)[nH]c2=O)cc1 (stereo not drawn) [Compound 551, 2-oxo-N-(2-(tetrahydro-2H-pyran-4-yl)-1-(p-tolyl)ethyl)-6-(trifluoromethyl)-1,2-dihydropyridine-3-carboxamide]
IC50 (HSD17B13; [3]): 2690 nM

CC[C@H](C[C@@H](NC(=O)c1ccc(C(F)(F)F)[nH]c1=O)c1ccc(C)cc1)OC [Compound 552, N-((1R,3R)-3-methoxy-1-(p-tolyl)pentyl)-2-oxo-6-(trifluoromethyl)-1,2-dihydropyridine-3-carboxamide]
IC50 (HSD17B13; [3]): 590 nM

CC[C@@H](C[C@@H](NC(=O)c1ccc(C(F)(F)F)[nH]c1=O)c1ccc(C)cc1)OC [Compound 553, N-((1R,3S)-3-methoxy-1-(p-tolyl)pentyl)-2-oxo-6-(trifluoromethyl)-1,2-dihydropyridine-3-carboxamide]
IC50 (HSD17B13; [3]): 2080 nM

CC[C@@H](O)C[C@@H](NC(=O)c1ccc(C(F)(F)F)[nH]c1=O)c1ccc(C)cc1 [Compound 554, N-((1R,3R)-3-hydroxy-1-(p-tolyl)pentyl)-2-oxo-6-(trifluoromethyl)-1,2-dihydropyridine-3-carboxamide]
IC50 (HSD17B13; [3]): 2350 nM

CC[C@H](O)C[C@@H](NC(=O)c1ccc(C(F)(F)F)[nH]c1=O)c1ccc(C)cc1 [Compound 555, N-((1R,3S)-3-hydroxy-1-(p-tolyl)pentyl)-2-oxo-6-(trifluoromethyl)-1,2-dihydropyridine-3-carboxamide]
IC50 (HSD17B13; [3]): > 10000 nM

Cc1ccc(C(CC2CCOC2)NC(=O)c2ccc(C(F)(F)F)[nH]c2=O)cc1 (stereo not drawn) [Compound 556, 2-oxo-N-(2-(tetrahydrofuran-3-yl)-1-(p-tolyl)ethyl)-6-(trifluoromethyl)-1,2-dihydropyridine-3-carboxamide]
IC50 (HSD17B13; [3]): 2350 nM

Cc1ccc(C(NC(=O)c2ccc(C(F)(F)F)[nH]c2=O)C2CCOCC2)cc1 (stereo not drawn) [Compound 558, 2-oxo-N-((tetrahydro-2H-pyran-4-yl)(p-tolyl)methyl)-6-(trifluoromethyl)-1,2-dihydropyridine-3-carboxamide]
IC50 (HSD17B13; [3]): 4570 nM
